# Measurements as given in patent publication US20210401791A1, “METHODS AND COMPOSITIONS FOR REDUCING ALCOHOL TOXICITY” (THE JOHNS HOPKINS UNIVERSITY, priority 2011, published 2021).
# Entries after “also recorded” stand apart in the source; their conditions may differ. Like-named read-outs stand apart in the source and are kept apart here.
# Key:
# [1] = tested on: Aldh3a1; test: mRNA expression of Aldh3a1 in Hepa1c1c7 cells (real-time PCR); type: cell-based, mouse; settings: 24 hours, SF 1 or 3 μM, TP-225 0.003 or 0.01 μM, BNF 0.3 or 1 μM
# Method: Total RNA was extracted from Hepa1c1c7 cells that had been exposed to serial dilutions of inducers for 24 h, or from RNA-stabilized tissues (stored in TRizol) from mice, followed by reverse transcription into cDNA. The cDNA was subjected to quantitative real-time PCR analysis by using SYBR Green fluorescence with 7000 Sequence Detection System. […] Relative expressions of individual mRNAs for ALDH were normalized to β-actin as an endogenous control, and the expression rate was calculated using the comparative ΔΔCt method.
# [2] = tested on: glutathione; settings: intake of SF; cited from earlier work
# [3] = human research studies; cited from earlier work
# [4] = tested on: Aldh2; settings: liver, SF diet 1 week
# Method: (§1) All animal experiments were performed in compliance with National Institute of Health Guidelines and those of Animal Care and Use Committee of the Johns Hopkins University. […] After 1 week on these diets, mice were euthanized and their liver, forestomach, glandular stomach, and upper small intestine were harvested, frozen in liquid nitrogen, and stored at −80° C. until analyzed. A small portion of each tissue was stored in RNA stabilizing solution at 4° C. until total RNA extraction.
# (§2) Total RNA was extracted from Hepa1c1c7 cells that had been exposed to serial dilutions of inducers for 24 h, or from RNA-stabilized tissues (stored in TRizol) from mice, followed by reverse transcription into cDNA. The cDNA was subjected to quantitative real-time PCR analysis by using SYBR Green fluorescence with 7000 Sequence Detection System. All primers used in this study were designed based on previous reports. Relative expressions of individual mRNAs for ALDH were normalized to β-actin as an endogenous control, and the expression rate was calculated using the comparative ΔΔCt method.
# [5] = tested on: Aldh1a1; settings: liver, SF diet 1 week
# Method: as §1, §2
# [6] = tested on: Aldh3a1; settings: SF diet 1 week
# Method: as §1, §2
# [7] = tested on: ALDH; test: Total ALDH activity in Hepa1c1c7 cell homogenates (propionaldehyde substrate, fluorimetric); type: cell-based, mouse
# Method: To determine total ALDH activity, Hepa1c1c7 or MEF cells were plated into 6-cm plates at 6.0×10^5 or 1.2×10^6 cells/plate, incubated for 24 h at 37° C. in a 5% CO2 atmosphere, and then treated with serial dilutions of inducers. The inducers were dissolved in acetonitrile or DMSO and added to medium so that final concentrations of the solvents was less than 0.5 or 0.1% v/v, respectively. […] The assay was started by addition of 10 μL of 90 mM propionaldehyde, bringing the total volume to 200 μL. […] Blank reaction rates without propionaldehyde were also determined.
# [8] = tested on: NQO1; settings: liver, both parts of stomach, upper intestine; high dose 20 μmol SF/3 g diet/day, 1 week
# Method: as §1
# [9] = 5 or 20 μmol SF/3 g diet/day, 1 week
# Method: as §1
# [10] = Method: (§3) After fasting overnight, they were gavaged with 35% (v/v) ethanol solution at a dose of 2.0 g/kg. Before, and 0.5, 1, 2, 3, 4, and 6 h after administration of ethanol, 20 μL of blood were collected by nicking the tail vein. The mice were then euthanized and their blood, liver, stomach and upper intestine were collected.
# (§4) Blood ethanol and acetaldehyde levels in mice were determined enzymatically by modification of the method of Tottmar et al. (Tottmar 1978). Whole blood samples (20 μL) were obtained by repeated incisions of mouse tail veins. The blood was immediately mixed with 200 μL of 4% (v/v) perchloric acid (PCA) in sealed tubes at 4° C., incubated for 10 min, and then centrifuged at 3000×g for 10 min. The pH values of the supernatant fractions were adjusted to 7.5-8.0 by adding 20 μL of 3 M K2CO3 in new tubes. After removing precipitated KClO4 by centrifugation at 3000×g for 10 min, supernatant fractions were stored in sealed tubes at 4° C. until assayed.
# Determination of acetaldehyde was performed in 10 mm quarts fluorescence cuvettes in a final volume of 2.33 mL assay mixture containing of assay mixture containing 50 mM sodium pyrophosphate (pH 8.8), 0.1 mM pyrazole, 0.1 mM NAD and 0.2 units/mL of purified ALDH (potassium activated from baker's yeast) with a luminescence spectrophotometer. Before and 5 min after addition of 170 μL of the supernatant, intensities were monitored (λex: 340 nm and λem: 460 nm). The acetaldehyde level in blood was calculated from change of intensity using acetaldehyde standard curve with range from 1.56 to 50 μM in blood. The standard curve was made by applying serial dilution of acetaldehyde to PCA treatment process same as blood.
# [11] = tested on: ALDH; settings: 1 week; for Cytosolic/microsomal and mitochondrial ALDH activities, fold above control: glandular-stomach
# Method: as §1
# To determine total ALDH activity, Hepa1c1c7 or MEF cells were plated into 6-cm plates at 6.0×10^5 or 1.2×10^6 cells/plate, incubated for 24 h at 37° C. in a 5% CO2 atmosphere, and then treated with serial dilutions of inducers. The inducers were dissolved in acetonitrile or DMSO and added to medium so that final concentrations of the solvents was less than 0.5 or 0.1% v/v, respectively. After 48 h of treatment, cells were washed twice with PBS, scraped from the plates, and homogenized in micro-homogenizers at 4° C. The homogenates were centrifuged at 5,000×g for 15 min at 4° C. and the supernatant fractions were collected. ALDH activity was measured fluorimetrically in 96-well plates (white-walled) by modification of the method of Koivula et al. (1975). The assay mixture (190 μL) contained 70 mM sodium pyrophosphate buffer (pH 8.0), 1.67 mM pyrazole, 1.33 mM NAD, and supernatant fraction. The assay was started by addition of 10 μL of 90 mM propionaldehyde, bringing the total volume to 200 μL. The initial velocity of NADH generation was measured (λex 340 nm and λem 460 nm) at 25° C. for 10 min in a micro-plate fluorometer. Blank reaction rates without propionaldehyde were also determined. The ALDH velocity was normalized to the protein concentration and expressed as a change in fluorescent units per min per mg of protein.
# To determine ALDH activities of cytosolic/microsomal and mitochondrial fractions individually, cells or harvested tissues were homogenized at 4° C. in 10 mM Tris-HCl (pH 7.4) containing 0.25 M sucrose and 1 mM 2-mercaptoethanol and centrifuged at 750×g for 15 min to remove nuclei and cell debris. Supernatant fractions were then centrifuged twice at 12,000×g for 20 min to obtain the cytosolic/microsomal and the precipitated mitochondrial fractions. Mitochondrial fractions were suspended in 0.25 M sucrose, diluted with one-half volume of 1% sodium bicarbonate containing 1% sodium deoxycholate (w/v), and sonicated in a Branson Sonicator at 4° C. for five (5) 2-minute periods for a total of 10 min before assays.
# [12] = tested on: ALDH in WT MEFs; settings: stepwise concentration of SF, 48 h
# Method: (§5) All cell lines were grown in 5% CO2 at 37° C. Murine hepatoma cell line, Hepa1c1c7 was cultured in α-MEM supplemented with 10% (v/v) heat inactivated FBS. Mouse embryo fibroblasts (MEFs) derived from day 13.5 embryos of wild-type or Nrf2-knockout C57BL/6 mice were cultured in Iscoves Modified Dulbecco's Medium (with L-glutamine) supplemented with human recombinant epidermal growth factor (10 ng/mL), 1× insulin/transferring/selenium, and 10% (v/v) heat-inactivated FBS.
# (§6) To determine total ALDH activity, Hepa1c1c7 or MEF cells were plated into 6-cm plates at 6.0×10^5 or 1.2×10^6 cells/plate, incubated for 24 h at 37° C. in a 5% CO2 atmosphere, and then treated with serial dilutions of inducers. The inducers were dissolved in acetonitrile or DMSO and added to medium so that final concentrations of the solvents was less than 0.5 or 0.1% v/v, respectively. […] ALDH activity was measured fluorimetrically in 96-well plates (white-walled) by modification of the method of Koivula et al. (1975). […] The initial velocity of NADH generation was measured (λex 340 nm and λem 460 nm) at 25° C. for 10 min in a micro-plate fluorometer. Blank reaction rates without propionaldehyde were also determined. The ALDH velocity was normalized to the protein concentration and expressed as a change in fluorescent units per min per mg of protein.
# [13] = tested on: ALDH in Nrf2−/− MEFs; settings: stepwise concentration of SF, 48 h
# Method: as §5, §6
# [14] = 20 μmol SF/3 g diet/day 1 week, then 2.0 g/kg ethanol oral
# Method: as §3, §4
# [15] = tested on: NQO1; test: NQO1 activity in Hepa1c1c7 cells (Prochaska assay, menadione substrate); type: cell-based, mouse; settings: 48 h
# Method: The lysates of Hepa1c1c7 cells which were plated in 96-well plates at 10^4 cells per well, grown for 24 h, and then exposed to serial dilutions of inducers for 48 h.
# [16] = liver, high dose 20 μmol SF/3 g diet/day
compound,measurement,setting,value
O=c1cc(-c2ccccc2)oc2ccc3ccccc3c12 [BNF],"Aldh3a1 mRNA expression, fold increase",[1],~5 fold
"C[S@@+]([O-])CCCCN=C=S [SF, 1-isothiocyanato-4R-(methylsulfinyl)butane]",Glutathione levels in liver,[2],increased glutathione levels in liver
same,Adverse effects on administration,[3],not shown any significant adverse effects
same,"Aldh2 expression level, fold increase",[4],1.8 fold
same,"Aldh1a1 expression level, fold increase",[5],2.5 fold
same,"Aldh3a1 expression, fold increase",[6]; forestomach,3 fold
same,"Aldh3a1 expression, fold increase",[6]; glandular stomach,6.5 fold
same,"Total ALDH activity, fold above control levels","[7]; 3 μM SF, additional 6 hours after first 12 h",1.5 fold
same,"Total ALDH activity, fold above control levels","[7]; 3 μM SF, additional 12 hours after first 12 h",1.9 fold
same,"Total ALDH activity, fold above control levels","[7]; 3 μM SF, additional 24 hours after first 12 h",2.1 fold
same,Total ALDH activity vs control,"[7]; 3 μM SF, first 12 h",not increased
same,Concentration at which significant effects on total ALDH activity were observed,"[7]; Hepa1c1c7 cells, 48 hours treatment",≥ 0.3 µM
same,Effect on total ALDH activity,"[7]; Hepa1c1c7 cells, serial concentrations, 48 h",dramatically and dose dependently increased; also recorded: increased total ALDH activity in Hepa1c1c7 cells in a dose dependent manner
same,Treatment time after which total ALDH activity increased,"[7]; time course measurement, treatment with SF",12 to 18 h
same,"NQO1 activity, fold increase compared to control",[8],≤ 2.2 fold
same,Body weights vs control group,[9],no significant differences
same,Food intakes vs control group,[9],no significant differences
same,AUC of blood acetaldehyde,"[10]; 20 μmol SF/3 g diet/day 1 week, then 2.0 g/kg ethanol oral, control 83.8±6.1",54.5 ± 5.1 µmol·h/L
same,Effect on blood acetaldehyde levels,"[10]; 20 μmol SF/3 g/day 1 week, then 2.0 g/kg ethanol oral (FIG. 9)",remarkably lowered
same,Acetaldehyde elimination constant relative to control mice,[10]; SF-fed mice,roughly 2 times
same,Prevention of increase in blood acetaldehyde level,"[10]; ascending phase, 20 μmol SF/3 g diet/day 1 week, then 2.0 g/kg ethanol oral",30%
same,Elimination rate constant k of blood acetaldehyde,"[10]; first order model, SF fed mice, control 0.21±0.02, p<0.01",0.40 ± 0.03 h⁻¹
same,Initial blood level C0 of acetaldehyde,"[10]; first order model, SF fed mice, control 28.62±2.1, NS",32.38 ± 2.4 µM
same,"Cytosolic/microsomal and mitochondrial ALDH activities, fold above control",[11]; (high) 20 μmol SF/3 g diet/day,5.1 fold
same,"Cytosolic/microsomal and mitochondrial ALDH activities, fold above control",[11]; (low) 5 μmol SF/3 g diet/day,4.1 fold
same,"Cytosolic/microsomal ALDH activity, fold increase",[11]; [16],1.4 fold
same,"Mitochondrial ALDH activity, fold increase",[11]; [16],1.5 fold
same,Effect on total ALDH activity,[12],increased in a dose dependent manner
same,Effect on total ALDH activity,[13],altogether absent
same,"Aldh3a1 mRNA expression, fold increase",[1],~5 fold
same,AUC of blood ethanol vs control,[14],no significant difference
same,Effect on blood ethanol level,[14]; only in descending phase,slightly affected
CC1(C)CC[C@]2(C#N)CC[C@]3(C)[C@H](C(=O)C=C4[C@@]5(C)C=C(C#N)C(=O)C(C)(C)[C@@H]5CC[C@]43C)[C@@H]2C1 [TP-225],CD value (concentration required to double the enzyme activity) for induction of ALDH,"[7]; Hepa1c1c7 cells, 48 h",0.0016 µM
same,"Aldh3a1 mRNA expression, fold increase",[1],~5 fold
same,CD value (concentration required to double the enzyme activity) for induction of NQO1,[15],0.00038 µM
"Oc1ccc(C=Cc2cc(O)cc(O)c2)cc1 [resveratrol, reference compound]",CD value (concentration required to double the enzyme activity) for induction of ALDH,"[7]; Hepa1c1c7 cells, 48 h",120.7 µM
same,CD value (concentration required to double the enzyme activity) for induction of NQO1,[15],> 50 µM
